Measured values reported in ChEMBL document CHEMBL5465560, “Selectivity Literature for EUbOPEN Chemogenomic Library” (2024).

How the values were obtained:
[1] = tested on: Epidermal growth factor receptor (Homo sapiens), P00533 [UNDEFINED MUTATION]; assay: Selectivity interaction (KinomeScan (DiscoverX)) EUB0000666a EGFR; details: at 10 µM
[2] = target: T1, Serine/threonine-protein kinase Nek9 (Homo sapiens) (UniProt Q8TD19); assay: Selectivity interaction (ActivX KiNativ screen (kinase selectivity in THP-1 cell lysates)) EUB0000639a NEK9; assay type: subcellular; details: lysate, at 0.2 µM
T1 sequence (whole entry): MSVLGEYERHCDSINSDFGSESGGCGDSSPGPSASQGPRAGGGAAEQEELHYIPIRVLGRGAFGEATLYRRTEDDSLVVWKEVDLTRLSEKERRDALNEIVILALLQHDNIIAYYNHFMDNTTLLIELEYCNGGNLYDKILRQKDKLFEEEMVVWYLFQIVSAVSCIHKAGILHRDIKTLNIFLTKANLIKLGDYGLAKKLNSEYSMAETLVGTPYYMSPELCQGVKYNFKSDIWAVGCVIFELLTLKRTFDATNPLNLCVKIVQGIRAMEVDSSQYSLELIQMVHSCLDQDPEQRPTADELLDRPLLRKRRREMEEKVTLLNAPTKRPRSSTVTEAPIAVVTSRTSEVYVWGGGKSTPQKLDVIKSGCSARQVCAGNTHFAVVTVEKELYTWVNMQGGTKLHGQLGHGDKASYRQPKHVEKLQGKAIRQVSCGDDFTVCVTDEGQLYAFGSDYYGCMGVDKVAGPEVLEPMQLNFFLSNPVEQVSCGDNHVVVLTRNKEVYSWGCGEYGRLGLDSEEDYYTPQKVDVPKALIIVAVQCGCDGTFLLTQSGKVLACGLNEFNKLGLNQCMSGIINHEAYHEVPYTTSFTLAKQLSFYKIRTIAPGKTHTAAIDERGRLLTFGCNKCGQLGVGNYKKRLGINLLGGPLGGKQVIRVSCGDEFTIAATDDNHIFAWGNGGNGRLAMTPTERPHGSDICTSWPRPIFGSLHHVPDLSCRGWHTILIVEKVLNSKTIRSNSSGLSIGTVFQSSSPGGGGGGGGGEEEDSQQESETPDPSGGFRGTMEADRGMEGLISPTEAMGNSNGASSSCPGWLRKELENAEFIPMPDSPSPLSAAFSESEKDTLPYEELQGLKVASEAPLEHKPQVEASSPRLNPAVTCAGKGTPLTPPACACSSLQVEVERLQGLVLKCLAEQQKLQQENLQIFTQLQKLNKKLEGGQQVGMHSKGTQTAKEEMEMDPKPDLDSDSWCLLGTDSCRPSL

[3] = target: Calcium/calmodulin-dependent protein kinase type 1G (Homo sapiens) (UniProt Q96NX5); assay: Selectivity interaction (Ambit KINOMEscan and KiNATiv profiling in Jurkat cells) EUB0000090b CAMK1G; assay type: cell-based; details: at 1 µM
[4] = target: Mitogen-activated protein kinase kinase kinase kinase 5 (Homo sapiens) (UniProt Q9Y4K4); assay: Selectivity interaction (KinomeScan (DiscoverX)) EUB0001079a MAP4K5; details: at 1 µM
[5] = target: Mitogen-activated protein kinase kinase kinase 1 (Homo sapiens, UniProt Q13233); assay: Selectivity interaction (Kinase panel (KiNativ target engagement assay in Jurkat cells)) EUB0001635a MAP3K1; assay type: cell-based; details: Selectivity number of off-targets 0.0, Selectivity number of targets 233.0, Source Knowledge https://www.sciencedirect.com/science/article/pii/S2451945619300674?via%3Dihub, at 1 µM
[6] = target: Cyclin-dependent kinase 4 (Homo sapiens, UniProt P11802); assay: Selectivity interaction (KinomeScan (DiscoverX)) EUB0000229b CDK4; details: at 10 µM
[7] = target: T2, Serine/threonine-protein kinase RIO1 (Homo sapiens) (UniProt Q9BRS2); details: at 10 µM
T2 sequence (whole entry): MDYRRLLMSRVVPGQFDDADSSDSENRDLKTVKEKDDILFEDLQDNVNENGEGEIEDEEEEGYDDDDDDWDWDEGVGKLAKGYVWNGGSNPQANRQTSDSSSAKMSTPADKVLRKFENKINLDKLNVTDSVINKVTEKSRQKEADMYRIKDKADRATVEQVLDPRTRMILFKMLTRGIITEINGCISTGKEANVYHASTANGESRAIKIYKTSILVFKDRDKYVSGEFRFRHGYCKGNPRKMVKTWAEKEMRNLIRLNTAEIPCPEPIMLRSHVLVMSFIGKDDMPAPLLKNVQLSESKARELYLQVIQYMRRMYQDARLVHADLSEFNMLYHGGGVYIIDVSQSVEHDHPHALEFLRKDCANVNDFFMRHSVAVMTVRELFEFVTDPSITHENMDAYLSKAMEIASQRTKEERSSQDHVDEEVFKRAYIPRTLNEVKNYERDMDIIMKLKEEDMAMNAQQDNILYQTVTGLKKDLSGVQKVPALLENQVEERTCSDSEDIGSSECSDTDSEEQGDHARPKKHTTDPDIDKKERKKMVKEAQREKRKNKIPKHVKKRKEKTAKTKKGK

[8] = target: T3, Dual serine/threonine and tyrosine protein kinase (Homo sapiens) (UniProt Q6XUX3); assay: Selectivity interaction (KinomeScan (DiscoverX)) EUB0001619a DSTYK; details: at 1 µM
T3 sequence (whole entry): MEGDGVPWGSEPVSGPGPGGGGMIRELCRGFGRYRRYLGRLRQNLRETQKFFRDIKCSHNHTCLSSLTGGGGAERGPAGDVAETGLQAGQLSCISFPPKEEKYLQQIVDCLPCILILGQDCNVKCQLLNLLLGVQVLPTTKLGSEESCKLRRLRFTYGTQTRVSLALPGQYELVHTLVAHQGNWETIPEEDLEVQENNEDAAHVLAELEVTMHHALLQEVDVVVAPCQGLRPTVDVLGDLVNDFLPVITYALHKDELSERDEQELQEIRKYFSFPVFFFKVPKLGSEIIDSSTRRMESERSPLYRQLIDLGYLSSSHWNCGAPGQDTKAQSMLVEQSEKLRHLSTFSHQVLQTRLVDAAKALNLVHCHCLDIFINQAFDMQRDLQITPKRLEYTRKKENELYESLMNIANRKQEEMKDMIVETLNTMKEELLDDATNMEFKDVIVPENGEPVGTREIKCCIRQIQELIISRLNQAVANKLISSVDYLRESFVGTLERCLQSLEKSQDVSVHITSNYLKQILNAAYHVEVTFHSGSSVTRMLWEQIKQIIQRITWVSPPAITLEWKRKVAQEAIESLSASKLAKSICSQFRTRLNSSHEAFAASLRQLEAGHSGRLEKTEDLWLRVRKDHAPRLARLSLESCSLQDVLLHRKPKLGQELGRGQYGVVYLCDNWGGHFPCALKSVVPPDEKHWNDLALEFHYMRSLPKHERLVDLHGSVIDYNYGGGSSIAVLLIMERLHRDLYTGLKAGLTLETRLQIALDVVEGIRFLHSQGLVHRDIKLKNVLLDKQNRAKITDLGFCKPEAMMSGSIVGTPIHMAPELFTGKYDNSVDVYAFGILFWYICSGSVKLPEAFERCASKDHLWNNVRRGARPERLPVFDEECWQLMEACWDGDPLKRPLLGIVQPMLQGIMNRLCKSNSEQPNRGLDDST

Chain of Cyclin-dependent kinase 4 (P11802 whole entry): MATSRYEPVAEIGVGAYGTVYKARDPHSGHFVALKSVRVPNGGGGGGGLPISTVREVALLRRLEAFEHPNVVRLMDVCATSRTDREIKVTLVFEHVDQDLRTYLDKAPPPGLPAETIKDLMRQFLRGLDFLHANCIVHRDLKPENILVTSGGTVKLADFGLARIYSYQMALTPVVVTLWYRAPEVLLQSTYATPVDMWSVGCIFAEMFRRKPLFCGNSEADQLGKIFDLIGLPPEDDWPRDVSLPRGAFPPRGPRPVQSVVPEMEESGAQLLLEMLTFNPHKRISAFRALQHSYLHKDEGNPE
Chain of Epidermal growth factor receptor (Homo sapiens), P00533 [UNDEFINED MUTATION] (P00533 whole entry, looked up, change not shown): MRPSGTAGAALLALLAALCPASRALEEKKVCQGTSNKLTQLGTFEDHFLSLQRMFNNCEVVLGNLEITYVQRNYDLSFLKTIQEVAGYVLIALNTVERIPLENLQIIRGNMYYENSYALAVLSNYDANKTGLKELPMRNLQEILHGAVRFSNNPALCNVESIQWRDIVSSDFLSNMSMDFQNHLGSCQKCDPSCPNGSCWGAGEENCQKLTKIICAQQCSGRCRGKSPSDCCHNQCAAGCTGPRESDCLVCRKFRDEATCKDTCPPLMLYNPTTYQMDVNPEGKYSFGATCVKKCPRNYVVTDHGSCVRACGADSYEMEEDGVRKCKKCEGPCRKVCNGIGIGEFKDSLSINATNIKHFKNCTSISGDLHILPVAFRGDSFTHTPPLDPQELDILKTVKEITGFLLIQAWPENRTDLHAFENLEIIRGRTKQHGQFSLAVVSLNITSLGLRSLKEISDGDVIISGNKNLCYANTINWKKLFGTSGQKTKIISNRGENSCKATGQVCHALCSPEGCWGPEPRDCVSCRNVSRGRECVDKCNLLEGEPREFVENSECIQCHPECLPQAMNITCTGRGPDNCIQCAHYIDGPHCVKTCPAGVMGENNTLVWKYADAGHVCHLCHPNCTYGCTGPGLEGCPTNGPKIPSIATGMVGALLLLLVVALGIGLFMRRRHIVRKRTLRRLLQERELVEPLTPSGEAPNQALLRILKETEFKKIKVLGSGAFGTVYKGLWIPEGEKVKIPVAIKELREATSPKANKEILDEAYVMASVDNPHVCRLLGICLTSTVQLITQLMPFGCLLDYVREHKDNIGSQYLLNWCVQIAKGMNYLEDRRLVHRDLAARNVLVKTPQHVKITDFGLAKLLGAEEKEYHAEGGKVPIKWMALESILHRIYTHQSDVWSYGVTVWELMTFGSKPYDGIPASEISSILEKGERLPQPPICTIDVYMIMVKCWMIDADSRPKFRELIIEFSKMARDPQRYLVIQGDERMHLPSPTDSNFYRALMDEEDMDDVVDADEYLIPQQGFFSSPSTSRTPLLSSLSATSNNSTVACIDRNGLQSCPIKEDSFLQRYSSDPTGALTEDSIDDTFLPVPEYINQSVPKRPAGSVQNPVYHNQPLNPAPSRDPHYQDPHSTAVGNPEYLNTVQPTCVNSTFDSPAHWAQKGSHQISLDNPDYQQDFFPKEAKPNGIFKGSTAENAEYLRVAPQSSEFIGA
Chain of Calcium/calmodulin-dependent protein kinase type 1G (Homo sapiens) (Q96NX5 whole entry): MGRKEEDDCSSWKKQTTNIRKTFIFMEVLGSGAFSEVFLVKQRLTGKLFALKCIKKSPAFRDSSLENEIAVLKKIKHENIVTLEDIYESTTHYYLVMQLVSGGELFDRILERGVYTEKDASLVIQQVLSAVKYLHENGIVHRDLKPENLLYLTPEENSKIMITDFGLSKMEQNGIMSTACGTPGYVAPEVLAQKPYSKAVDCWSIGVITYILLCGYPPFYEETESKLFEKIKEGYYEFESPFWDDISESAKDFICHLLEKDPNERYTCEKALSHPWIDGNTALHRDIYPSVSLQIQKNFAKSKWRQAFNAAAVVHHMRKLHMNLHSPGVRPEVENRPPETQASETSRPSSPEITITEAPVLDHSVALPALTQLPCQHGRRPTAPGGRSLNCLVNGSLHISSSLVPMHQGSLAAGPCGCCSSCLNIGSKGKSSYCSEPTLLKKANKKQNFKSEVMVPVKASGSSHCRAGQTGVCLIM
Chain of Mitogen-activated protein kinase kinase kinase kinase 5 (Homo sapiens) (Q9Y4K4 whole entry, looked up): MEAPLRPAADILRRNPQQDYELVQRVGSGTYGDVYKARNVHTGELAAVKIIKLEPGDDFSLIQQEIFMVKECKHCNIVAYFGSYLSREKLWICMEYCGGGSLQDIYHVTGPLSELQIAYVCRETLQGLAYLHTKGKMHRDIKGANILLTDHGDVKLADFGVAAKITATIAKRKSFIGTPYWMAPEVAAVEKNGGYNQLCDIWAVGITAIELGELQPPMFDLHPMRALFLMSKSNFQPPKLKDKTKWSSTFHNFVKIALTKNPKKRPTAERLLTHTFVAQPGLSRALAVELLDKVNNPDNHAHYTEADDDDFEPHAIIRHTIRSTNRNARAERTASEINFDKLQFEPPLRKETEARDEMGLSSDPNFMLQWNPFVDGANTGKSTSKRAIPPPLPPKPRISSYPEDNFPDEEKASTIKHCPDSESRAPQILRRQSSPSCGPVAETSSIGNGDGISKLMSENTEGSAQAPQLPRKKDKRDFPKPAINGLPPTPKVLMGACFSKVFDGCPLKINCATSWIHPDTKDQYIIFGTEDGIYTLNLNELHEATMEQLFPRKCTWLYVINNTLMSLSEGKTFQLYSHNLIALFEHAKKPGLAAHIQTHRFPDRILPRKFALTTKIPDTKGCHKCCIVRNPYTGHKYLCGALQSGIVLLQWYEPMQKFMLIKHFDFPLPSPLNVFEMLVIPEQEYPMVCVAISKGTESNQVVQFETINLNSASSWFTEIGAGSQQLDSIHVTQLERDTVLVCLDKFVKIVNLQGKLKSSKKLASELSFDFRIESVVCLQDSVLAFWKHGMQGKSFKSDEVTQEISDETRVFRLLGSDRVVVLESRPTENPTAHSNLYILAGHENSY
Chain of Mitogen-activated protein kinase kinase kinase 1 (Q13233 whole entry): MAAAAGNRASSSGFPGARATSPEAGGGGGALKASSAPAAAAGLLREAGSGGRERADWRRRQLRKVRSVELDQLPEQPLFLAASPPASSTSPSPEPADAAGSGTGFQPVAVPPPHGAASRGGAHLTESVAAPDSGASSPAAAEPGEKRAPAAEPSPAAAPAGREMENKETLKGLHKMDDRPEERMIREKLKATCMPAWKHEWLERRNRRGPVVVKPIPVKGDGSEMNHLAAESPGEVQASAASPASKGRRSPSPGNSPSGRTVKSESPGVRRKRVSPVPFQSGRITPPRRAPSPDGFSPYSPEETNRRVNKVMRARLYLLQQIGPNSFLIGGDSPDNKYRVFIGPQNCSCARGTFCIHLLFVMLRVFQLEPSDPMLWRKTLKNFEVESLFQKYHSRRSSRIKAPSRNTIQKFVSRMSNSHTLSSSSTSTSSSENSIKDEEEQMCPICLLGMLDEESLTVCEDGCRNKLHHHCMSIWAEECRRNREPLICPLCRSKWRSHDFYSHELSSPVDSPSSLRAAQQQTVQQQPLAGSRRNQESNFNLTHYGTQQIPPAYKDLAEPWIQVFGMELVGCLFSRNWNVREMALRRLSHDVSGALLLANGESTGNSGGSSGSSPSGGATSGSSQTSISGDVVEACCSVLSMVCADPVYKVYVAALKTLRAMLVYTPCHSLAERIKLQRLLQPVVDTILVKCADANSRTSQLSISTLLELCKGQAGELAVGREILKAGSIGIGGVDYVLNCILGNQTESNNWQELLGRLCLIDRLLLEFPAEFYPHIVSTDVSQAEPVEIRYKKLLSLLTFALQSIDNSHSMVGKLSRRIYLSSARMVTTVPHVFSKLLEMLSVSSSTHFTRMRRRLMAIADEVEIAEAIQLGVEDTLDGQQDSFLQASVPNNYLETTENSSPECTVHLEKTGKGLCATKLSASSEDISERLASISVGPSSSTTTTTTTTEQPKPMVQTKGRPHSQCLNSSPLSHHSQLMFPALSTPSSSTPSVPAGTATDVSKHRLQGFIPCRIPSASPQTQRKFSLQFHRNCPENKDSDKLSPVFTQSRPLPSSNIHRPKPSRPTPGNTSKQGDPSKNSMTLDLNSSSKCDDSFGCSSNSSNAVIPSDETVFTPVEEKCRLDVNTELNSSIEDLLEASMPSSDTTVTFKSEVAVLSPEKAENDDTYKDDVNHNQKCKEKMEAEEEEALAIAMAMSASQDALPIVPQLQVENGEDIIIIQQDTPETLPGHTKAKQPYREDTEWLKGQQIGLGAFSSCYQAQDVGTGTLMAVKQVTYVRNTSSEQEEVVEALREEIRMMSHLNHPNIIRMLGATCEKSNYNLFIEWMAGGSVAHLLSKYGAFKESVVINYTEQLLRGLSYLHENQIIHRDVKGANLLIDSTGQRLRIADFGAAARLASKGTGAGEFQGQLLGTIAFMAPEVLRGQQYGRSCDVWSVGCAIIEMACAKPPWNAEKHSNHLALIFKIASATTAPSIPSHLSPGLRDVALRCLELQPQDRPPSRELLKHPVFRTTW

Q: With `O=C(NOC[C@H](O)CO)c1ccc(F)c(F)c1Nc1ccc(I)cc1F` as the molecule, how does the % of control [1] read?
A: 59%

Q: How did the % of inhibition [2] turn out when `CC[C@@H]1[C@H](F)C(=O)N[C@@H]1COc1nccc2cc(C(N)=O)c(OC)cc12` [ZIMLOVISERTIB] was run?
A: 8.3%

Q: `CN(C)C/C=C/C(=O)Nc1ccc(C(=O)N2CCCC(Nc3ncc(Cl)c(-c4c[nH]c5ccccc45)n3)C2)cc1` (stereo not drawn) was tested. Which % of control [3] did it give?
A: 81%

Q: With `Nc1cnc(N2CCc3cc(S(=O)(=O)Nc4c(F)cc(Cl)cc4F)cc(N4CCCC4=O)c32)nc1` [TP-020n] as the molecule, how does the % of control [4] read?
A: 73%

Q: How did the % of engagement [5] turn out when `C=CC(=O)Nc1ccc(C(=O)Nc2[nH]nc3c2CN(C(=O)N[C@H](CN(C)C)c2ccccc2)C3(C)C)cc1` was run?
A: 12.9%

Q: How did the % binding [6] turn out when `COc1cc(N(C)c2ccnc3ccc(C(F)(F)F)cc23)cc(OC)c1OC` was run?
A: 100%

Q: How did the % of control [7] turn out when `Cc1cc([C@@H](C)Nc2ccccc2C(=O)O)c2nc(N3CCOCC3)cc(=O)n2c1` [AZD-6482] was run?
A: 100%

Q: With `N#Cc1cccc(-c2c[nH]c3ncnc(N4CCOCC4)c23)c1` as the molecule, how does the % of control [8] read?
A: 91%
